Here are results for 14 molecules from ChEMBL document CHEMBL1201862, “PubChem BioAssay data set” (2004).

Among the test systems are ACHN; OVCAR-4; SK-MEL-5; RPMI-8226; KM12; UACC-62; HCT-15; NCI-H226; HOP-62; CAKI-1; NCI-H522; TK-10; SK-MEL-28; HL-60; RXF 393; SNB-19; OVCAR-3.
Common to all, as to assay: inhibition of tumour cell growth, NCI panel, 48 h

Structures are written as SMILES.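 Growth conditions: 96-well plates. Treatment: test compound, 48 hours, 5 concentrations. Analysis: linear interpolation between bracketing concentrations; unreached endpoints set to highest concentration. GI50 marks 50% less growth.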 Active and inactive are the calls of the source. No stated cut-off is given here; in the data, active = GI50 up to about 1.1 µM and inactive = higher.

Turning to `CCOP(=O)(OCC)/C(C#N)=C/c1ccco1`, the GI50 in the assay with ACHN, in the assay with OVCAR-4, with SK-MEL-5, in the assay with RPMI-8226, in the assay on KM12 and with UACC-62 was > 100 µM (inactive) each time. The GI50 in the assay with HCT-15 is greater than 100 µM; in the assay on NCI-H226, > 100 µM (inactive); in the assay on HOP-62, > 100 µM (inactive); in the assay with CAKI-1, > 100 µM (inactive); with NCI-H522, > 100 µM (inactive); in the assay on TK-10, > 100 µM (inactive). Further, the GI50 in the assay on SK-MEL-28 and in the assay on HL-60 was > 100 µM (inactive) throughout.

For `N=C(N)N/N=C(/c1nc2ccc([N+](=O)[O-])cc2[nH]c1=O)C(O)c1ccc([N+](=O)[O-])cc1` (centres undefined), the GI50 with ACHN was 21.3 µM (inactive); in the assay with RXF 393 it was > 100 µM (inactive); in the assay on OVCAR-4 it was > 100 µM (inactive); with SNB-19, > 100 µM (inactive); with SK-MEL-5, 37.5 µM (inactive); in the assay on RPMI-8226 it was > 100 µM (inactive). Also, the GI50 in the assay on KM12 is 36.1 µM (inactive); in the assay on UACC-62, 15.7 µM (inactive); with HCT-15 it was 11.5 µM; with OVCAR-3, 94.2 µM (inactive); in the assay with NCI-H226, > 100 µM (inactive); with HOP-62 it was 37.8 µM (inactive). In addition, the GI50 in the assay with CAKI-1 was 28.4 µM (inactive); in the assay with NCI-H522, 4.54 µM (inactive); with SK-MEL-28, 78.5 µM (inactive); in the assay on HL-60 it was > 100 µM (inactive).

With `O=C(Nc1ccc(Cl)c(C(F)(F)F)c1)C(=O)C(C(=O)/C=C/c1ccccc1)C1OC(=O)c2ccccc21` (centres undefined), the GI50 in the assay with ACHN was > 100 µM (inactive); with RXF 393, 93.5 µM (inactive); in the assay on OVCAR-4 it was > 100 µM (inactive); in the assay with SNB-19, > 100 µM (inactive); in the assay on RPMI-8226, 72.8 µM (inactive); in the assay with KM12, > 100 µM (inactive). Further, the GI50 with UACC-62 was 71.1 µM (inactive); in the assay with HCT-15 it was greater than 100 µM; in the assay with OVCAR-3 it was > 100 µM (inactive); in the assay on NCI-H226, > 100 µM (inactive); in the assay with HOP-62, > 100 µM (inactive); with CAKI-1 it was > 100 µM (inactive). Further, the GI50 was 63.1 µM (inactive) with NCI-H522, > 100 µM (inactive) in the assay with TK-10 and > 100 µM (inactive) in the assay with HL-60.

Take `O=C(CSc1nnc(Cc2ccccc2)o1)Nc1ccc([N+](=O)[O-])cc1`: the GI50 in the assay on ACHN, in the assay with RXF 393, with OVCAR-4, in the assay on SK-MEL-5, with RPMI-8226 and with KM12 was > 100 µM (inactive) each time. In addition, the GI50 is > 100 µM (inactive) with UACC-62; greater than 100 µM in the assay on HCT-15; > 100 µM (inactive) in the assay on OVCAR-3; > 100 µM (inactive) in the assay with NCI-H226; > 100 µM (inactive) in the assay on HOP-62; 82.2 µM (inactive) in the assay with NCI-H522. The figures for the GI50 with TK-10, in the assay on SK-MEL-28 and with HL-60 were 62.2 µM (inactive), > 100 µM (inactive) and 14.1 µM (inactive), respectively.

Consider `CSC(C1c2ccccc2N(C)c2[nH]c(=O)n(C)c(=O)c21)S(=O)(=O)c1ccc(C)cc1` (centres undefined), for which the GI50 is > 100 µM (inactive) in the assay on OVCAR-4; > 100 µM (inactive) in the assay with SNB-19; > 100 µM (inactive) in the assay on SK-MEL-5; > 10 µM (inactive) in the assay on RPMI-8226; > 100 µM (inactive) with UACC-62; 64.3 µM with HCT-15. The GI50 was > 100 µM (inactive) in the assay with OVCAR-3; > 100 µM (inactive) in the assay with NCI-H226; > 100 µM (inactive) in the assay with HOP-62; > 100 µM (inactive) in the assay on CAKI-1; 20.1 µM (inactive) with NCI-H522; > 100 µM (inactive) with TK-10. For the same molecule, the GI50 in the assay on SK-MEL-28 is > 100 µM (inactive); in the assay on HL-60, 50.2 µM (inactive).

With `Cn1cc2c(n1)c(N/N=C/c1ccccc1)nn1nnnc21`, the GI50 in the assay on ACHN, in the assay on RXF 393, in the assay with OVCAR-4, with SNB-19, with SK-MEL-5 and in the assay with RPMI-8226 was > 100 µM (inactive) in each case. Also, the GI50 in the assay on UACC-62 is > 100 µM (inactive); in the assay with HCT-15, greater than 100 µM; with OVCAR-3, > 100 µM (inactive); with NCI-H226, > 100 µM (inactive); in the assay on HOP-62, > 100 µM (inactive); in the assay on CAKI-1, > 100 µM (inactive). In addition, the GI50 with TK-10, in the assay with SK-MEL-28 and with HL-60 was > 100 µM (inactive) throughout.

Regarding `O=c1c2ccccc2nc(-c2ccccc2)n1NC(=S)Nc1cccc(Cl)c1`, the GI50 in the assay on ACHN was > 100 µM (inactive); in the assay with RXF 393 it was 27.2 µM (inactive); in the assay on OVCAR-4 it was > 100 µM (inactive); with SK-MEL-5, > 100 µM (inactive); with RPMI-8226, > 100 µM (inactive); in the assay on KM12 it was > 100 µM (inactive). In addition, the GI50 in the assay with UACC-62 is 75 µM (inactive); with HCT-15, greater than 100 µM; in the assay on NCI-H226 it was > 100 µM (inactive); with HOP-62, 60.3 µM (inactive); in the assay on CAKI-1 it was > 100 µM (inactive); in the assay with NCI-H522, 46.7 µM (inactive). Moreover, the GI50 with TK-10 was 36.6 µM (inactive); with SK-MEL-28, > 100 µM (inactive); with HL-60, > 100 µM (inactive).

On to `C/C(=N/NC(N)=S)C(CN1CCOCC1)C(C1=C(O)c2ccccc2OC1)c1ccccc1` (centres undefined), for which the GI50 is > 100 µM (inactive) in the assay on ACHN; > 100 µM (inactive) in the assay with RXF 393; > 100 µM (inactive) in the assay on OVCAR-4; > 100 µM (inactive) with SNB-19; > 100 µM (inactive) with SK-MEL-5; 90.2 µM (inactive) with RPMI-8226. Also, the GI50 in the assay on KM12, with UACC-62, with OVCAR-3, with NCI-H226, in the assay with CAKI-1 and in the assay with NCI-H522 was > 100 µM (inactive) throughout. For the same molecule, the figures for the GI50 in the assay with TK-10 and in the assay with HL-60 were > 100 µM (inactive) and 21 µM (inactive), respectively.

With `COc1ccc(NCC#N)cc1`, the GI50 in the assay with ACHN, in the assay on RXF 393, in the assay with SNB-19, with SK-MEL-5, in the assay on RPMI-8226 and in the assay on KM12 was > 100 µM (inactive) each time. Moreover, the GI50 was 83.4 µM (inactive) in the assay with UACC-62; greater than 100 µM with HCT-15; > 100 µM (inactive) in the assay with OVCAR-3; > 100 µM (inactive) with NCI-H522; > 100 µM (inactive) in the assay with TK-10; > 100 µM (inactive) in the assay with SK-MEL-28. For the same molecule, in the assay on HL-60, the GI50 is 52.8 µM (inactive).

As to `COC(=O)NN=C1C(C)(C)C(=O)C1(C)C`, the GI50 in the assay with ACHN, in the assay on RXF 393, with SK-MEL-5, in the assay on RPMI-8226, with KM12 and with UACC-62 was > 100 µM (inactive) each time. The GI50 in the assay on OVCAR-3, in the assay on NCI-H226, in the assay with HOP-62, in the assay with NCI-H522, in the assay with TK-10 and in the assay with SK-MEL-28 was > 100 µM (inactive) each time. For the same molecule, the GI50 in the assay on HL-60 was > 100 µM (inactive).

Turning to `COc1cccc(NC(=O)CC(=O)N2NC(c3ccccc3)C(/N=N/c3cccc(C(=O)O)c3)C2=O)c1` (centres undefined), the GI50 in the assay with ACHN was > 100 µM (inactive); in the assay on RXF 393, 49.5 µM (inactive); in the assay with OVCAR-4, > 100 µM (inactive); in the assay with SNB-19 it was 28.1 µM (inactive); in the assay on SK-MEL-5, > 100 µM (inactive); with RPMI-8226, 70 µM (inactive). The GI50 in the assay with KM12 was 39.4 µM (inactive); in the assay with UACC-62, 30.5 µM (inactive); in the assay with OVCAR-3, 38.2 µM (inactive); in the assay on NCI-H226, > 100 µM (inactive); in the assay with HOP-62 it was > 100 µM (inactive); in the assay on CAKI-1, 89.5 µM (inactive). Moreover, the GI50 with TK-10 and with SK-MEL-28 was > 100 µM (inactive) in each case.

Turning to `CC1(C)OC(=O)C(C#N)=C1/C=C/c1coc2ccc(Cl)cc2c1=O`, the GI50 was 24.6 µM (inactive) with OVCAR-4; 30.4 µM (inactive) in the assay with SNB-19; 21.9 µM (inactive) in the assay with SK-MEL-5; 26.9 µM (inactive) in the assay on RPMI-8226; 41.3 µM (inactive) with KM12; 31.7 µM (inactive) with UACC-62. Moreover, the GI50 is 27.4 µM in the assay on HCT-15; 18.4 µM (inactive) with OVCAR-3; 29.4 µM (inactive) in the assay with NCI-H226; 23.7 µM (inactive) with HOP-62; 10.8 µM (inactive) with CAKI-1; 74 µM (inactive) in the assay on NCI-H522. In the assay with SK-MEL-28, the GI50 is 47.5 µM (inactive).

Consider `O=C(/C=N/c1ccccc1C(=O)[O-])c1cccs1.O=C(/C=N/c1ccccc1C(=O)[O-])c1cccs1.[Zn+2]`, for which the GI50 was > 100 µM (inactive) in the assay with ACHN; 43.1 µM (inactive) with SNB-19; > 100 µM (inactive) with KM12; 20.8 µM (inactive) with UACC-62; greater than 100 µM in the assay on HCT-15; 15.4 µM (inactive) in the assay with OVCAR-3. Moreover, the GI50 in the assay on HOP-62 is > 100 µM (inactive); in the assay on CAKI-1, 91 µM (inactive); in the assay on NCI-H522, 21.1 µM (inactive); in the assay with TK-10, > 100 µM (inactive); in the assay with SK-MEL-28 it was 39.5 µM (inactive); in the assay with HL-60, 43.3 µM (inactive).

On to `COC(=O)/C=C1\CCC2[C@@H](C(=O)CC3[C@]2(C)CCC[C@@]3(C)C(=O)OC)C1C` (some centres undefined), for which the GI50 is 22.5 µM (inactive) in the assay on ACHN; 22.5 µM (inactive) in the assay on OVCAR-4; 32.4 µM (inactive) with SNB-19; 13.5 µM (inactive) in the assay on SK-MEL-5; 3.93 µM (inactive) in the assay on RPMI-8226; 17.1 µM (inactive) in the assay with KM12. Also, the GI50 in the assay on UACC-62 was 13.6 µM (inactive); with HCT-15, 29.8 µM; in the assay with OVCAR-3, 22.7 µM (inactive); in the assay with NCI-H226 it was 20 µM (inactive); in the assay on HOP-62, 28.9 µM (inactive); with CAKI-1, 30.1 µM (inactive). The GI50 is 16.5 µM (inactive) with NCI-H522, 19.5 µM (inactive) in the assay on TK-10, 16.3 µM (inactive) with SK-MEL-28 and 13.1 µM (inactive) in the assay on HL-60.
